Tests used:
human iPS cells [1] = test: Relative survival rate after 6 days of refrigerated storage and 1 day of recovery culturing; format: cell-based; details: for effectiveness in refrigerated storage (relative survival rate): 0.04 mM to 5.0 mM added to HTM-alpha without trolox and GlutaMAX, compared with trolox 2.0 mM
Description: The HTM-alpha (UW solution + MEM-alpha, 2: 1) described in “2.” above, which has not been added with trolox and GlutaMAX (registered trademark, GIBCO), is used in FIGS. 6A and 2A. The effect of the addition of tocopherol (vitamin E) and tocopherol acetate (vitamin E derivative) in the non-freezing refrigerated storage was investigated by the same procedure as in case of trolox addition in the above. Tocopherol and tocopherol acetate were added so as to become 0.04 mM to 5.0 mM in the same manner as the trolox addition, and refrigerated storage was performed. At this time, a sample to which trolox at 2.0 mM, which is a water-soluble vitamin E analog, was added was also tested at the same time. FIG. 6D summarizes the relative survival rates after 6 days of the storage and 1 day of recovery cultivation.
Here, the effect of adding polyvinyl alcohol (PVA) instead of hydroxyethyl starch (HES) was investigated. Here, the composition of the UW solution shown in Table 1 above, excluding hydroxyethyl starch (HES), was adopted. Thus, the other components are same with those in the HTM-alpha (UW solution + MEM-alpha, 2: 1) while polyvinyl alcohol (PVA) in the range of 0.25% to 2.5% (weight) were added in the storage liquids used here. The cell viability was evaluated in the same manner as in the case of FIG. 6D above. That is, the protective effect of polyvinyl alcohol (PVA) was examined by the same procedure as in FIGS. 6A and 2A. At this time, a sample having a hydroxyethyl starch (HES) concentration of 5% (weight) was also tested at the same time. FIG. 12A summarizes the relative survival rates after 6 days of the refrigerated storage and 1 day of recovery culturing. […] It should be noted that polyvinyl alcohol (PVA) is cheaper than hydroxyethyl starch (HES), and is considered to be safer for living tissues.
Next, in the same manner as in “13.” above, mannitol was added together with polyvinyl alcohol (PVA), and the synergistic effect was verified. […]

[2] = system: human iPS cell line (253G1); test: Non-freezing refrigerated storage in single cell state at 4° C., survival rate by trypan blue; format: cell-based; details: for effect of antioxidant/radical scavenger on ST80 (ranking): added to HTM1 at various concentrations; for 80% survival-rate maintenance days (ST80): single cell state, 4° C.
Text: A healthy human-derived human iPS cell line (253G1) obtained from the Center for iPS Cell Research and Application, Kyoto University was maintained and cultured under feeder-free conditions. For this culture, StemFit (registered trademark) AK02N (Ajinomoto), which is a commercially available medium for clinical research for human ES/iPS cells was used. When the cells reached 70-80% confluence on the 7th day after the start of the culture, the cells were enzymatically stripped off from a container by using 0.5X TrypLE® Select, and then dispersed and washed. Subsequently, the cells were suspended in a new StemFit® AK02N medium containing 10 µM Y27362 (Fujifilm Wako Pure Chemical Industries, Ltd.) as a ROCK inhibitor, and added with iMatrix-511 (MATRIXOME, Inc.) as a further cell culture substrate at 0.1 µg/cm^2. Then, the cells were seeded at a concentration of 1.3E3/cm^2 (1.3 ×10^3/cm^2). The day after the seeding, the medium was replaced with StemFit® AK02N medium containing no Y27362, then the medium was replaced every 3 days and subcultured or tested on day 7.
The human iPS cells obtained in “1.” above are added into the refrigerated storage liquids HTM1 and HTM2 in “2.” above to be suspended at 1E6 cells/mL (number of floating cells 1x10^6 cells/mL) in a cell state. Then, the suspensions were placed into a plastic tube and allowed to stand at 4° C. for storage. The survival rate was determined by counting the number of living cells after staining with trypan blue.
The statistical processing in the examples of the present application was performed as follows. The survival rate maintenance curves in FIGS. 1A and 2B were obtained by using “R ver 3.5.1” to fit the four-variable logistic curve. The 1way ANOVA and Bonferoni and Dunnetts tests were calculated using “Graphpad Prism 5.04”.
Antioxidants or radical scavengers were added to HTM1 at various concentrations and subjected to the non-freezing refrigerated storage test as described in “3.” above. The added antioxidants or radical scavengers are shown in FIG. 5A and are: Trolox (Trx, Wako), EGCG (Teavigo®, DSM), N-acetylcysteine (NAC, Tokyo Kasei), L-ascorbic acid (AA, WAKO)), and edaravone (3-Methyl-1-phenyl-2-pyrazoline-5-one, Sigma).

human iPS cells [3] = test: Refrigerated storage in adhesive state (1): proliferation on recultivation for 4 days; format: cell-based
Description: Human iPS cells obtained in the same manner as in “1.” above were used. However, at the final stage of culturing, the cells were seeded at a slightly lower concentration (1.0E3/cm^2) than the maintenance culture of “1.” above, and the day after this seeding, culture medium was replaced by StemFit® A[…] medium containing no Y27362. Then, the medium was removed 4 days after the seeding. Subsequently, the medium was replaced with HTM1 which is for the non-freezing refrigerated storage, and the medium with the cells was left to stand for 3 or 6 days under 4° C. In other words, in a state the cells were aggregated and adhered to each other, the cells were stored in non-freezing refrigerated condition for 3 days or 6 days. Trolox was added to HTM1, which is the medium for refrigerated storage. […] A UW solution (BELZER UW (registered trademark) COLD STORAGE LIQUID) was also used as the refrigerated storage medium of the comparative example. The cells after the non-freezing refrigerated storage were lightly washed with culture medium after the refrigerated storage medium were removed. Then, StemFit® A[…] medium was added and culturing was made for 4 days. At the end of this culturing, cells were enzymatically detached (by using 0.5X TrypLE® Select), and dispersed so that number of viable cells are counted. Then, it was compared with the number of cells at the start of refrigerated storage. In addition, after taking a phase difference image at the end and start of the culturing, image processing was performed with ImageJ to extract and binarize the colony area, and the colony area was measured to evaluate the proliferative ability. The above experiment was aimed at developing a refrigerated storage method in a state iPS cells were adhered, and proliferative ability (colony forming ability) subsequent to culturing for 4 days after the non-freezing refrigerated storage for 3 or 6 days. FIGS. 7A-7B show images of colonies obtained by the […] for 4 days after 3 days of the refrigerated storage, and FIGS. 7C-7D show images of colonies obtained by recultivation for 4 days after he refrigerated storage for 6 days. Here, FIGS. 7A and 7C are phase differentiation images, and binarized images of these are shown in FIGS. 7B and 7D, respectively. […] Further, in the bar graphs of FIGS. 7F and 8, the rate of increase in the number of colonies when recultivated for 4 days after the refrigerated storage for 3 days and 6 days. In the graph, the rate for a control, which is for cell not subjected to the refrigerated storage, is taken as “1” or 100%.

[4] = system: mouse blastocyst stage embryos; test: Refrigerated storage of mouse embryos: escape from the zona pellucida; format: cell-based, mouse (ICR); details: 14 µM to 140 µM; low temperature storage for 5 days and 7 days
Description: On the other hand, in order to try non-freezing refrigerated storage of mouse embryos (FIGS. 10 to 11), in vitro fertilization was performed by ova and sperms from female and male mice (both ICR), and then embryos were cultured for 3.5 days (84 hours). Here, HTF (Fuji Film Wako Pure Chemical Industries, Ltd.) was used as the medium for insemination, and KSOM (Arc Resource) was used for culturing.
As described above, a blastocyst stage embryo 3.5 days after in vitro fertilization was immediately used as it was, and a refrigerated storage experiment was conducted. Specifically, for this blastocyst stage embryo, the medium was replaced with the HTM-alpha, HTM1, and HTS FRS as used in the above “11.” and the UW solution, in respective experiments. […] Both of HTM-alpha and HTM1 here are obtained by adding 5 mM Trolox and 5-fold concentration (x5; 10 mM) GlutaMAX (registered trademark) in the same manner as in “11.” above.
Next, the effect of adding adenine hydrochloride (Tokyo Kasei) was investigated in the same manner as in FIGS. 7E to 7F. That is, under the same conditions as in the experiment of FIG. 10, the rate of embryos that escaped the zona pellucida when Adenine hydrochloride (Tokyo Kasei) was added at each concentration was determined.

human iPS cells [5] = test: Colony forming ability (relative colony efficiency) after refrigerated storage for 6 days and culturing for 5 days; format: cell-based; details: 6 days storage, 5 days culturing
Description: The cell proliferation ability after non-freezing refrigerated storage was verified as follows. First, the human iPS cells obtained in the above “1.” were placed into the refrigerated storage liquid HTM1 of the above “2.” and stored in the non-freezing refrigerated state for 6 days as in the above “3.”. The cells were then suspended in StemFit® AK02N medium containing 10 µM Y27362, into which iMatrix-511 was added by 0.1 µg/cm^2. and seeded at a concentration of 1.3E3/cm^2. On 5th day of culturing, the cells were stained with fixed alkaline phosphatase, and then the number of colonies formed to a certain size or larger was measured using a colony counter. The number of colonies when cultured for 5 days without being subjected to the refrigerated storage was similarly measured and used as a control. Then, the number of colonies obtained by culturing for 5 days after the refrigerated storage was divided by the number of colonies in this control to obtain colony forming ability (Relative colony efficiency).
Next, in order to verify the proliferative ability after refrigerated storage and recultivation, cells having been stored in the refrigerated state for 6 days were seeded in the same manner as in “4.” above, and the colony forming ability on the 5th day of culturing was compared. […] This obtained value was almost the same as that of the customary conventional slow-cooling cryoprerservation method placing the cell suspension in a freezer at -80° C.

[6] = additive 5 mM in HTM1, listed as trolox

Compound: tocopherol
- effectiveness in refrigerated storage (relative survival rate) (human iPS cells [1]): less effective in refrigerated storage than trolox

Compound: CC(=O)Oc1c(C)c(C)c2c(c1C)CCC(C)(CCC[C@H](C)CCC[C@H](C)CCCC(C)C)O2 (stereo partly drawn) [tocopherol acetate]
- effectiveness in refrigerated storage (relative survival rate) (human iPS cells [1]): less effective in refrigerated storage than trolox

Compound: CC1=NN(c2ccccc2)C(=O)C1 [Edaravone, 3-Methyl-1-phenyl-2-pyrazoline-5-one]
- effect of antioxidant/radical scavenger on ST80 (ranking) [2]: second highest effect

Compound: O=C(O[C@@H]1Cc2c(O)cc(O)cc2O[C@@H]1c1cc(O)c(O)c(O)c1)c1cc(O)c(O)c(O)c1 [EGCG]
- effect of antioxidant/radical scavenger on ST80 (ranking) [2]: third highest effect

Compound: CC(=O)N[C@@H](CS)C(=O)O [N-acetylcysteine]
- effect of antioxidant/radical scavenger on ST80 (ranking) [2]: third highest effect

Compound: Cl.Nc1ncnc2nc[nH]c12 [Adenine, adenine hydrochloride]
- proliferation rate at recultivation (human iPS cells [3]; 2.8 mM and 4.2 mM in HTM1 with Trolox 5 mM, storage 6 days): significantly increased
- growth rate at recultivation (human iPS cells [3]; 8.2 mM in HTM1 with Trolox 5 mM, storage 6 days): decreased the growth rate
- zona pellucida escape rate [4]: relatively high zona pellucida escape rate

Compound: O=C1O[C@H]([C@@H](O)CO)C(O)=C1O [L-Ascorbic Acid, L-ascorbic acid]
- effect of antioxidant/radical scavenger on ST80 (ranking) [2]: did not show much effect

Compound: Cc1c(C)c2c(c(C)c1O)CCC(C)(C(=O)O)O2 (stereo not drawn) [Trolox]
- colony forming ability as multiple of HTM1 alone (human iPS cells [5]; 5.0 mM added to HTM1): about twice
- colony forming ability relative to control not subjected to refrigerated storage (human iPS cells [5]; 5.0 mM added to HTM1): 41.2%
- colony forming ability as multiple of HTM1 alone (human iPS cells [5]; 5.0 mM added to HTM1, listed as trolox): 2.3 times
- colony forming ability, dependence on concentration (human iPS cells [5]; added to HTM1): increased depending on the concentration of trolox
- cell proliferation rate at recultivation compared with control not refrigerated (human iPS cells [3]; 5 mM added into HTM1, storage 3 days): almost the same value as that in the control
- cell proliferation rate at recultivation relative to control not refrigerated (human iPS cells [3]; 5 mM added into HTM1, storage 6 days): about 10%
- ST80 compared with HTM1 with no trolox added ([2]; 0.5 mM or more added to HTM1): significantly higher
- ST80, dependence on addition concentration ([2]; added to HTM1, concentration varied): increase approximately with increasing trolox concentrations
- effect of antioxidant/radical scavenger on ST80 (ranking) [2]: most effective
- survival rate maintenance days (ST80) as multiple of HTM1 alone ([2]; additive 5 mM in HTM1): about 4 times
- survival rate maintenance days (ST80) as multiple of UW solution ([2]; additive 5 mM in HTM1): 9.5 times
- survival rate maintenance days (ST80) as multiple of HTM1 alone [2, 6]: 4.4 times
- 80% survival-rate maintenance days (ST80) ([2]; additive 5 mM in HTM1): ≥ 20 days
- 80% survival-rate maintenance days (ST80) [2, 6]: 20.11 days

Compound: OC[C@@H](O)[C@@H](O)[C@H](O)[C@H](O)CO [mannitol]
- viability of the cells after refrigerated storage (human iPS cells [1]; 30 mM to 90 mM together with 0.5% PVA in HTM-alpha without HES, compared with 5% HES): higher

Reference: patent US20230189790A1, “NON-FREEZING REFRIGERATED STORAGE LIQUID FOR STEM CELLS” (BIOVERDE INC., priority 2019, published 2023)
